# Positions count from the first letter of the chain named.
# Tests used:
# Assay type in all cases: cell-based
# Conditions in all cases: 20 μM CAT335
# A286F TREK-1^CG* = target: T1, A286F TREK-1^CG* (Mus musculus, UniProt P97438, A301F/S146C); experiment: Resting membrane potential, current-clamp (I=0) in HEK293 cells
# T1 construct: expressed in transfected cells; host or cells: Xenopus laevis oocytes injected with mRNA
# T1 sequence (P97438 1-411 isoform P97438-2 S131C/A286F): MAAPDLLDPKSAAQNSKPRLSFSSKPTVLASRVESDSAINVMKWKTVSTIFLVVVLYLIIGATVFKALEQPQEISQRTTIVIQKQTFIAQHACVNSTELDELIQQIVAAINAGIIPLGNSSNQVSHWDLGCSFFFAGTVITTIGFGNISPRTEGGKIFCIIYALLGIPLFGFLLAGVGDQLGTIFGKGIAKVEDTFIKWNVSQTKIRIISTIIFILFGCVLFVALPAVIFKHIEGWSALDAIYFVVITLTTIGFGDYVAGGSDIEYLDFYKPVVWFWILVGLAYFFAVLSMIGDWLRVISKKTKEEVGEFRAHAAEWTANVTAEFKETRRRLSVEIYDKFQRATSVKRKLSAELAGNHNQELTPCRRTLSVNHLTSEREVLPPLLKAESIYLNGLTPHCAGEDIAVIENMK
# Description: (§1) Mouse K2P2.1 (TREK-1) (Genbank accession number: NP_034737.2), mouse K2P10.1 (TREK-2) (NM_001316665.1), mouse K2P4.1 (TRAAK) (NM_008431.3), human K2P4.1 (TRAAK) (NM_033310.2) and mouse K2P18.1(TRESK) (NM_207261.3) were used for this study. Point mutations were introduced by site-directed mutagenesis using custom primers and confirmed by sequencing before use. For studies using Xenopus oocytes, K2P channels were subcloned into a previously reported pGEMHE/pMO vector (46). For expression in HEK293 cells, mouse K2P2.1 (TREK-1) and mutants were expressed from a previously described pIRES2-EGFP vector in HEK293 cells (46,47). K2P2.1 (TREK-1) tandems were constructed by connecting the open reading frames for the individual subunits with a linker encoding the […] (SEQ ID NO: 19) sequence. Tandems used for HEK293 cells included an N-terminal HA tag ([…] (SEQ ID NO: 20)) on the first subunit.
# (§2) 50% confluent cells were co-transfected (in 35-mm diameter wells) with 10-100 ng of the K2P2.1 plasmid and 400 ng of an eGFP plasmid (for visualization) using LipofectAMINE 2000 (Invitrogen) for 24 h, after which the cells were either plated onto coverslips or the media exchanged with fresh media. […]
# (§3) Whole-cell patch-clamp experiments with K2P2.1(TREK-1) and mutants were carried out 24-48 h after transfection. […] Data were analyzed using Clampfit 11 and GraphPad Prism 9.
# TREK-1^CG* = target: T2, TREK-1^CG* (Mus musculus, UniProt P97438, S146C); experiment: as above
# T2 construct: expressed in transfected cells; host or cells: HEK293 (pIRES2-EGFP vector)
# T2 sequence (P97438 1-411 isoform P97438-2 S131C): T1 sequence (P97438 1-411 isoform P97438-2 S131C/A286F) with F286A
# Description: as §1, §2, §3
# [1] = tested on: HEK293 cells (no exogenous K2P expression); experiment: Resting membrane potential, current-clamp (I=0) in control HEK293 cells
# Method: 50% confluent cells were co-transfected (in 35-mm diameter wells) with 10-100 ng of the K2P2.1 plasmid and 400 ng of an eGFP plasmid (for visualization) using LipofectAMINE 2000 (Invitrogen) for 24 h, after which the cells were either plated onto coverslips or the media exchanged with fresh media. Cells were plated onto Matrigel coated coverslips (BD Biosciences) 1-2 hours before experiments.
# Whole-cell patch-clamp experiments with K2P2.1(TREK-1) and mutants were carried out 24-48 h after transfection. Acquisition and analysis for voltage-clamp experiments were performed using pCLAMP10 and an Axopatch 200B amplifier (Molecular Devices). Current-clamp experiments were acquired using an […] amplifier (Molecular Devices). Pipettes were pulled using a Flaming/Brown micropipette puller (P-97, Sutter Instruments) and flame-polished using a MF-830 microforge (Narishige). Electrode resistance after filling with pipette internal solution ranged from 2 to 5 MΩ. Currents were low-pass filtered at 2 kHz and sampled at 10 kHz. Pipette solution contained the following: 145 mM KCl, 3 mM MgCl2, 5 mM EGTA and 20 mM HEPES (pH 7.2 with KOH). Bath solution contained the following: 145 mM NaCl, 5 mM KCl, 1 mM CaCl2, 3 mM MgCl2 and 20 mM HEPES (pH 7.4 with NaOH). […] Data were analyzed using Clampfit 11 and GraphPad Prism 9.
compound,measurement,setting,value
O=C(NCc1ccc(Cl)cc1Cl)c1ccc(N2C(=O)C=CC2=O)cc1 [CAT335],Change of resting membrane potential (ΔRMP),A286F TREK-1^CG*,−27 mV
same,Change of resting membrane potential (ΔRMP),TREK-1^CG*,−6 mV
same,Change of resting membrane potential (ΔRMP),[1],+7 mV
